Experimental data as given in patent US20070117826A1, “Pharmaceutical formulations comprising ibuprofen, oxycodone, and 14-hydroxycodeinone” (Forest Laboratories, Inc., priority 2005, published 2007).
“And” between values parts separate entries of the source, which are not always exact repeats. Equal entries are not always repeated. “Also recorded” adds a separate entry of the source.

What was measured:
[1] = tested on: polychromatic erythrocyte cells in Crl:CD-1(ICR) BR mouse bone marrow; test: In vivo mouse micronucleus assay; conditions: for statistically significant increase in micronucleated PCEs: 31.25, 62.5 and 125 mg/kg; for signs of clinical toxicity in treated animals: mice dosed up to and including 125 mg/kg
Description: The objective of this study was to evaluate 14-hydroxycodeinone for in vivo clastogenic activity and/or disruption of the mitotic apparatus by detecting micronuclei in polychromatic erythrocyte cells in Crl:CD-1®(ICR) BR mouse bone marrow. The assay design was based on Organization for Economic Co-operation and Development (OECD) guideline 474, updated and adopted Jul. 21, 1997. The study was conducted in compliance with the Good Laboratory Practice regulations as set forth by the FDA.
The micronucleus test can serve as a rapid screen for clastogenic agents and test articles which interfere with normal mitotic cell division (Schmid, W., The micronucleus test. Mutat. Res. 31, 9-15, 1975; Heddle et al., The introduction of micronuclei as a measure of genotoxicity. Mutat. Res. 123, 61-118, 1983). Micronuclei are small chromatin bodies, consisting of entire chromosomes and/or acentric chromosome fragments, which lag behind at mitotic anaphase. At telophase, these multiple micronuclei are in the cytoplasm. During maturation of hematopoietic cells from erythoblasts to erythocytes, the nucleus is extruded. Micronuclei, if present, persist in the cytoplasm of these non-nucleated cells. Detection of micronuclei in non-nucleated cells eliminates the need to search for metaphase spreads in treated cell populations. Test articles affecting spindle-fiber function or formation can be detected through micronucleus induction. In this study, enucleated immature red blood cells or polychromatic erythrocytes (PCEs) were analyzed for the presence of micronuclei.
The micronucleus assay used 48 animals approximately 8 weeks old at the […], with a weight range of 28.4 to 35.3 g.
At least 2000 erythrocytes (PCEs) per animal were analyzed for the presence of […] was assessed by scoring the number of PCEs and ic erythrocytes (NCEs) in at least the first 500 erythrocytes for each […] of the micronuleus assay results is presented in the following table.

Crl:CD-1(ICR) BR mice = test: Dose range finding study (mortality); type: in vivo, mouse; conditions: oral gavage
Description: Since no appropriate toxicity data were available (e.g., the same species, strain, route, etc.), a dose range finding study was performed using the same treatment regimen used in the micronucleus assay. Young adult male and female mice of the Crl:CD-1®(ICR) BR strain from Charles River Laboratories, Raleigh, N.C., were used in this study. Dose levels of 0, 125, 250, and 500 mg/kg were tested.

COc1ccc2c3c1OC1C(=O)C=C[C@@]4(O)[C@@H](C2)N(C)CC[C@]314 (some centres unmarked) [14-hydroxycodeinone]
PCE:NCE mean ratio ([1]; 31.25 mg/kg oral gavage, harvest 24 Hours): 0.74
PCE:NCE mean ratio ([1]; 62.5 mg/kg oral gavage, harvest 24 Hours): 0.64
PCE:NCE mean ratio ([1]; 125 mg/kg oral gavage, harvest 24 Hours): 0.66
PCE:NCE mean ratio ([1]; 125 mg/kg oral gavage, harvest 48 Hours): 0.36
bone marrow toxicity (PCE:NCE ratio versus control 0.60) ([1]; 125 mg/kg, 48-hour group, difference not statistically significant at p≦0.05): suggesting induced bone marrow toxicity
statistically significant increase in micronucleated PCEs [1]: no signs of clinical toxicity or a statistically significant increase in micronucleated PCEs
statistically significant increase in micronucleated PCEs ([1]; listed as 14-Hydroxycodeinone): did not induce statistically significant increases
outcome of the mouse bone marrow micronucleus assay (mutagenic properties) ([1]; doses up to 125 mg/kg in mice): does not exhibit mutagenic properties; also recorded: negative
signs of clinical toxicity in treated animals [1]: no signs of clinical toxicity
signs of clinical toxicity in treated animals ([1]; listed as 14-hyrdroxycodeinone): did not induce signs of clinical
cytotoxicity to the bone marrow (PCE:NCE ratios versus control) ([1]; treated groups overall): lack of cytotoxicity to the bone marrow
Number of Mice (died/total) (Crl:CD-1(ICR) BR mice; 125 mg/kg): 0/6
Number of Mice (died/total) (Crl:CD-1(ICR) BR mice; 250 mg/kg): 3 of 6 and 3/6
Number of Mice (died/total) (Crl:CD-1(ICR) BR mice; 500 mg/kg): 14 of 18 and 14/18
